Measurements from US10632195B2, “Pharmaceutical device for electric-field assisted administration of Tapentadol and method of administering Tapentadol with same” (Gruenenthal GmbH, priority 2012, dated 2020).

Experiments:
[1] = HPLC purity of Tapentadol in exhausted hydrogel after electric-field-assisted administration (example 4); type: physicochemical
[2] = preliminary clinical trials: serum concentration and pain treating effect (visual analog scale); type: in vivo, human
Text: Low serum concentrations of Tapentadol suffice to show an effect in individuals that are relatively sensitive and higher serum concentrations of Tapentadol are needed to show an effect in persons that are relatively unsensitive.

[3] = electrophoretic transdermal delivery from hydrogel formulations in device according to FIG. 1 (examples 2a, 2b, 2c; passive comparative example 2a); type: in vitro ADME, mouse; conditions: for total amount of Tapentadol permeated, electrophoretic delivery: after 24 hours, 60 s pulses after 1.5 and 16.5 hours
Text: The rate of electrophoretic transdermal delivery of three different exemplary Tapentadol hydrochloride containing hydrogel formulations A, B and C has been investigated in example 2a, 2b and 2c. Further, the rate of passive transdermal delivery of a corresponding Tapentadol hydrochloride containing hydrogel formulation has been investigated in a comparative experiment 2a.
(§1) The linearity of the method was verified by calibration with an aqueous solution of Tapentadol hydrochloride.
The hydrogel formulation B has been placed in an electrophoretic transdermal delivery system according to FIG. 1. The following components were used for preparing the electrophoretic device according to FIG. 1:
silver electrodes as pair of electrodes consisting of an active electrode (1a) and a counter electrode (2a) (silver gauze, 1024 mesh/cm^2, 0.12 wire diameter, 99.9% Ag, 18 mm diameter), a foam ring (9) (Alveolit TA 1001 005 White, 95 kg/m^3, 22 mm outer diameter, 16 mm inner diameter), hydrogel formulation B as drug reservoir (3), a teflon ring as barrier material (10) (thickness 1 mm, outer diameter 16 mm, inner diameter 11 mm), silicone adhesive Bio PSA-7 4502 as adhesive layer (4a), which has been in contact with a removable protective layer prior to use (transparent PETP foil manufactured by 3M®, 74 μm, with one-side fluorination, 22 mm diameter), acrylate adhesive DuroTAK 387-2054 as a second adhesive layer (8), a PET foil as surface layer (7) (Loparex PET foil, 75 μm, 105 g/m^2, 22 mm diameter).
Two wires were soldered to the electrodes and connected to a conventional current source as electric power source (6a) (Voltakraft® laboratory power supply DIGI 35).
Transdermal delivery experiments across mouse skin have been performed after two short current pulses (2 V) have been applied for 2 s after 1.5 hour and for 2 s after 16.5 hours.
For comparison, the hydrogel formulation B or A has been placed in an electrophoretic transdermal delivery system according to FIG. 1 and passive transdermal delivery experiments to mouse skin have been performed, i.e. no electric current has been applied to these systems (passive control experiments). This experiment has been performed twice for formulation B (compB-1 and compB-2) and once in case of formulation A (compA) (comparative example 2a) as indicated in FIG. 4 and FIG. 5.
The hydrogel formulation B has been placed in an electrophoretic transdermal delivery system according to FIG. 1 comprising the same components as used for example 2a and comparative example 2a.
Transdermal delivery experiments across mouse skin have been performed after two current pulses have been applied. […]

[4] = combined electrophoretic and iontophoretic transdermal delivery from hydrogel formulation C in device according to FIG. 3 (examples 3a, 3b, 3c); type: in vitro ADME, mouse
Text: The rate of combined iontophoretic and electrophoretic transdermal delivery of aTapentadol hydrochloride containing hydrogel formulation has been investigated in examples 3a, 3b and 3c.
as §1
The hydrogel formulation C (as described in example 2a) has been placed in a combined electrophoretic and iontophoretic device according to FIG. 3. The following components were used for preparing the inventive electrophoretic and iontophoretic device according to FIG. 3:
silver electrodes as pair of electrodes consisting of an active electrode (1a) and a counter electrode (2a) (silver gauze, 1024 mesh/cm^2, 0.12 wire diameter, 99.9% Ag, 18 mm diameter and 14 mm diameter, respectively), an additional silver ring electrode as an auxiliary electrode (silver gauze, 1024 mesh/cm^2, 0.12 wire diameter, 99.9% Ag, 20 mm outer diameter and 16 mm inner diameter, respectively), a hydrogel formulation (comprising 2.5%-wt. Klucel® HF and 0.1%-wt. sodium chloride, having a pH value of 7.0) as additional reservoir (15) being in contact with the silver ring electrode, a foam ring as (9) (Alveolit TA 1001 005 White, 95 kg/m^3, 24 mm outer diameter, 20 mm inner diameter), hydrogel formulation C as drug reservoir (3), teflon ring as barrier material (10) (thickness 1 mm, outer diameter 16 mm, inner diameter 11 mm and, thickness 0.5 mm, outer diameter 20 mm, inner diameter 16 mm, respectively), silicone adhesive Bio PSA-7 4502 as adhesive layer (4a), which has been in contact with a removable protective layer prior to use (transparent PETP foil manufactured by 3M®, 74 μm, with one-side fluorination, 24 mm diameter), acrylate adhesive DuroTAK 387-2054 as a second adhesive layer (8), a PET foil as surface layer (7) (Loparex PET foil, 75 μm, 105 g/m^2, 24 mm diameter).
Three wires were soldered to the electrodes and connected to a conventional current source as electric power source (6a) (Voltakraft® laboratory power supply DIGI 35).
A transdermal delivery experiment across mouse skin has been performed. In the first electrophoretic phase, only the silver electrodes as pair of electrodes consisting of an active electrode (1a) and a counter electrode (2a) were connected to the current supply. After application of 2.5 hours a single pulse having a pulse length of 60 s at a constant voltage of 3 V has been applied. After application of said pulse both electrodes were disconnected from the voltage generator. In the second iontophoretic phase following the electrophoretic phase, the counter electrode (2a) of the electrophoretically used pair of silver electrodes (1a and 2a) is used as an active electrode (1b) and the additional silver ring electrode is used a counter electrode (2b). A single pulse having a pulse length of 60 s at a constant voltage of 3 V has been applied in the iontophoretic phase.
The hydrogel formulation C (as described in example 2a) has been placed in a combined electrophoretic and iontophoretic device according to FIG. 3. The same components were used for preparing the inventive combined electrophoretic and iontophoretic device as described in example 3a.
Three transdermal delivery experiments (E-1, E2 and E3 as example 3b) to mouse skin have been performed in order to directly assess differences between a solely electrophoretic transdermal delivery and a combined electrophoretic and iontophoretic transdermal delivery as indicated in FIG. 13 and FIG. 14: […]

[5] = exhausted hydrogel of F-3 of example 3c, HPLC

CC[C@@H](c1cccc(O)c1)[C@@H](C)CN(C)C [Tapentadol, (−)-(1R,2R)-3-(3-dimethyl-amino-1-ethyl-2-methyl-propyl)-phenol]
electrically induced degradation of Tapentadol ([1]; during electric-field administration of the device): does not induce a significant degradation | Tapentadol content [1, 5]: 95.3% | sum of impurities [1, 5]: 4.7% | visual analog scale (VAS) in a population mean ([2]; at serum concentration of about 5 ng·ml-1): approximately −2 mm | visual analog scale (VAS) in a population mean ([2]; at serum concentration of about 300 ng·ml-1): approximately −15 mm | total amount of Tapentadol permeated, electrophoretic delivery ([3]; B-5: formulation B, 2 V): more than 300 μg/cm^2 | total amount of Tapentadol permeated, electrophoretic delivery ([3]; C-3: formulation C, 5 V): 670 μg/cm^2 | increase of cumulative skin permeation by electrophoresis versus passive delivery ([3]; hydrogel formulation B, example 2a (2 V pulses of 2 s after 1.5 and 16.5 hours) vs comparative example 2a, from FIG. 4): 5-10 fold | Tapentadol remaining within the transdermal delivery system ([3]; over 24 hours of administration, examples 2a, 2b and 2c): about 90 wt.-% | fall-off of the drug flux ([4]; E-2, after 18 hours compared to the maximum at about 6 hours): about 50% | total amount of Tapentadol permeated, combined electrophoretic and iontophoretic delivery ([4]; after 24 hours, D-1: formulation C, 60 s 3 V electrophoretic pulse after 2.5 hours then 60 s 3 V iontophoretic pulse, mouse skin probably injured): 430 μg/cm^2 | total amount of Tapentadol permeated, electrophoretic delivery ([4]; after 24 hours, E-2: formulation C, four 60 s 3 V electrophoretic pulses (0, 15.75, 18, 20.75 h)): more than 700 μg/cm^2 | total amount of Tapentadol permeated, combined electrophoretic and iontophoretic delivery ([4]; after 24 hours, E-3: formulation C, four 60 s 3 V electrophoretic pulses (0, 15.75, 18, 20.75 h) each followed by 9 V iontophoretic pulse): more than 800 μg/cm^2 | total amount of Tapentadol permeated, combined electrophoretic and iontophoretic delivery ([4]; after 24 hours, F-3: formulation C, four 60 s 4 V electrophoretic pulses (0, 2.5, 5.5, 21.5 h) each followed by 9 V iontophoretic pulse): about 1500 μg/cm^2
